Laboratory results as given in US20110159017A1, “TRYTOPHAN CATABOLISM IN CANCER TREATMENT AND DIAGNOSIS” (Ludwig Institute for Cancer Research Ltd., priority 2008, published 2011).
pIC50: −log10 of the molar value.

Tests used:
IDO [1] = biological target: T1, IDO (Homo sapiens, UniProt P14902); settings: J F Reinhard et al., 1996, read-out: IC50 (affinity to IDO); cited from earlier work
Target sequence in this assay (P14902 whole entry, species assumed): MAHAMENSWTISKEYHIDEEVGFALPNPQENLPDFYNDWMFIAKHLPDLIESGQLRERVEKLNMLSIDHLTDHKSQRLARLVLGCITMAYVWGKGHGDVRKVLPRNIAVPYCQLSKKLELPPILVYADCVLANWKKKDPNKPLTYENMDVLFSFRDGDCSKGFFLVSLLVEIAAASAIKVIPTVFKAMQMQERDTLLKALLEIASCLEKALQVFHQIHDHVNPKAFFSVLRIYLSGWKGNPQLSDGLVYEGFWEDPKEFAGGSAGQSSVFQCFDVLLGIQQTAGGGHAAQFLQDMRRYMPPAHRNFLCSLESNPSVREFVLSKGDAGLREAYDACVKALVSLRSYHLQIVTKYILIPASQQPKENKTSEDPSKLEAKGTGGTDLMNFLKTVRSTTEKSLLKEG

[2] = biological target: T2, TDO2 in Head and Neck carcinoma cell line 2720 (SENY) (Homo sapiens, UniProt P48775); test: Tryptophan consumption and kynurenine production by Head and Neck carcinoma cell line 2720 (SENY), HPLC of supernatant; format: cell-based; settings: at 20 μM; SENY cells, overnight, HBSS with 50 μM tryptophan
T2 construct: To confirm the expression of enzymatically active TDO2, we used Head and Neck carcinoma cell line 2720 (SENY); endogenous in cells; host or cells: Head and Neck carcinoma cell line 2720 (SENY)
Protocol: FIG. 5. A bar graph depicting tryptophan consumption and kynurenine production in head and neck carcinoma cell line 2720 (SENY) in the presence or absence of the TDO-specific inhibitor 680C91 or the IDO inhibitor mb.
To confirm the expression of enzymatically active TDO2, we used Head and Neck carcinoma cell line 2720 (SENY), which expresses 12.7 molecules of TDO2 mRNA/cell. We measured tryptophan consumption and kynurenine production in the supernatant of 5×10^5 cells incubated overnight in 2 ml of HBSS containing 50 μM tryptophan. Tryptophan and kynurenine concentrations were measured by HPLC using standard methods.
See FIG. 5 for results of this assay. To confirm that the tryptophan-degrading activity was due to TDO, TDO-specific inhibitor 680C91 was included at 5 μM or 20 μM. As control, an IDO inhibitor (mb) was also used at 5 μM or 20 μM. A tryptophan-degrading activity was detected and was clearly observed by looking at the production of kynurenine: 11 μM as compared to 0 in the control without cells. This activity was mostly attributable to TDO, as it was blocked by the TDO-specific inhibitor 680C91 (50% inhibition at 20 μM).

human TDO2 = biological target: T3, human TDO2 (Homo sapiens, UniProt P48775); test: Tryptophan degradation and kynurenin production by 293-E cells transfected with human TDO2, HPLC of supernatant; format: cell-based; settings: 293-E hTDO cells, overnight, HBSS with 25 μM tryptophan, increasing inhibitor concentrations (FIG. 4)
T3 construct: expressed in transfected cells; host or cells: human 293-EBNA (293-E) cells

IDO [3] = biological target: T1, IDO; test: Tryptophan degradation and kynurenin production by 293-E cells transfected with human IDO, HPLC of supernatant; format: cell-based; set-up: expressed in transfected cells; host or cells: human 293-EBNA (293-E) cells; settings: 293-E hIDO cells, overnight, HBSS with 25 μM tryptophan, increasing inhibitor concentrations (FIG. 4)
Protocol: FIG. 4. Line graphs depicting concentrations of tryptophan and kynurenine in culture supernatants of different transfected cells. Control human 293-EBNA cells (293-E) (FIG. 4A), 293-E cells transfected with human IDO (293-E hIDO) (FIG. 4B) or human 293-E cells transfected with human TDO2 (293-E hTDO) (FIG. 4C) were incubated overnight (4×10^5 cells/2000) in Hank's balanced Salt solution (HBSS) supplemented with 25 μM tryptophan and increasing concentrations of the 680C91 inhibitor compound ([inh]). The concentrations (μM) of tryptophan ([Trp], ⋄) and kynurenin ([Kyn], □) were measured by HPLC in the supernatant.
A TDO inhibitor, 680C91, was described in Salter, M., R. Hazelwood, C. I. Pogson, R. Iyer, and D. J. Madge. 1995. Biochem. Pharmacol. 49:1435-1442. We synthesized this compound and tested its capacity to block tryptophan degradation by human 293 cells transfected with TDO2.
Target sequence in this assay (P14902 whole entry): as the sequence (P14902 whole entry, species assumed) above

T2 sequence (P48775 whole entry): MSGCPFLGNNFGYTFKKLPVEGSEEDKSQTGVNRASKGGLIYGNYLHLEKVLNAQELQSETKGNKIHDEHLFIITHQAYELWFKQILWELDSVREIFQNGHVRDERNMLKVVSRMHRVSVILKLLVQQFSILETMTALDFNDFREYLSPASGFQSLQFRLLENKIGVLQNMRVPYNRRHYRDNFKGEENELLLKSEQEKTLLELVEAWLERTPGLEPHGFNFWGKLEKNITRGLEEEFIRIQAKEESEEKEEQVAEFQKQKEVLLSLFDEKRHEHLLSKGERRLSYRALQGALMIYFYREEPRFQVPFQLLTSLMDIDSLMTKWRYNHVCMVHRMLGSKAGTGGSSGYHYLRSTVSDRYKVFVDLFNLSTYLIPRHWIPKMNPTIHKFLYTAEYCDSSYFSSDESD
T3 sequence (P48775 whole entry): as above

Row | SMILES | pIC50 (IDO [1]) | inhibition of tryptophan-degrading activity (kynurenine production) [2] | block of tryptophan degradation and kynurenin production by TDO-expressing cells (human TDO2) | block of tryptophan degradation and kynurenin production by IDO-expressing cells (IDO [3])
1 | C(=C\c1c[nH]c2ccccc12)/c1ccncc1 [540C91, (E)-3-[2-(4′-pyridyl)-vinyl]-1H-indole] | 2.94 | – | – | –
2 | Fc1ccc2c(/C=C/c3cccnc3)c[nH]c2c1 [680C91, (E)-6-fluoro-3-[2-(3-pyridyl)vinyl]-1H-indole] | – | 50% | efficiently blocked | failed to block
